According to article PMC8624485, “Modeling, Synthesis, and Biological Evaluation of Potential Retinoid-X-Receptor (RXR) Selective Agonists: Analogs of 4-[1-(3,5,5,8,8-Pentamethyl-5,6,7,8-tetrahyro-2-naphthyl)ethynyl]benzoic Acid (Bexarotene) and 6-(Ethyl(4-isobutoxy-3-isopropylphenyl)amino)nicotinic Acid (NEt-4IB)” (International Journal of Molecular Sciences, 2021):

Experiments:
Type in all cases: cell-based
[1] = test system: Saccharomyces cerevisiae; assay: Saccharomyces cerevisiae toxicity assay; conditions: 3 h incubation, colony count vs DMSO only control; highest concentration tested 11 µg/µL
Description: These compounds were also assessed for mutagenicity and toxicity in Saccharomyces cerevisiae and the toxicity results are summarized in Table 1. No compound was mutagenic in this assay.
All compounds were tested for toxicity and mutagenicity using a Saccharomyces cerevisiae based assay as described previously. Toxicity was assessed in this assay (Table 1), comparing growth on plates to control treatments. Compounds were solubilized in DMSO at increasing concentrations and cells were incubated with the compounds for 3 h before plating on selective media or YPD to assess toxicity and mutagenicity. Cytotoxicity was assessed as described. Growth of colonies on the full nutrient YPD plate for each treatment was compared to the DMSO only control. The concentration at which 50% cell death (as indicated by colony count compared to DMSO only control) +/−10% cell death is reported as the 50% killing rate. The highest concentration tested was 11 µg/µL.

[2] = biological target: T1, RXRα (Homo sapiens, UniProt P19793); assay: UAS/Gal4 GFP reporter assay of RXRα activation in UAS-GFP x KMT2A-MLLT3 cells; conditions: RXRα activation; value (SD); Table 1 does not say whether GFP or Luc assay; read-out: EC50 (nM) +/−(SD)
T1 construct: expressed in transfected cells; host or cells: UAS-GFP x KMT2A-MLLT3 cells (retroviral transduction)
T1 sequence (P19793 227-458 limits assumed): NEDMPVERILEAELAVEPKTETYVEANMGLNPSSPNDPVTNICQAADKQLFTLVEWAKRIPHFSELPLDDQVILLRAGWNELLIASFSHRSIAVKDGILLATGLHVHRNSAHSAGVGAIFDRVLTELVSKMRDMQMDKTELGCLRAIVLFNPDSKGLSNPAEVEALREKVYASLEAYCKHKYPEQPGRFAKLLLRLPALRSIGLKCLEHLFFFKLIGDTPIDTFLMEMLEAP
Description: Cells were treated, and after 48 h, GFP measured by a ZE5 Flow Cytometer (Biorad).

[3] = biological target: T2, human RARα (Homo sapiens, UniProt P10276); assay: RARE-luciferase reporter assay in HEK293 cells; conditions: HEK293, all-trans-RA set to 100%
T2 construct: expressed in transfected cells; host or cells: HEK293 cells
T2 sequence (P10276 1-462): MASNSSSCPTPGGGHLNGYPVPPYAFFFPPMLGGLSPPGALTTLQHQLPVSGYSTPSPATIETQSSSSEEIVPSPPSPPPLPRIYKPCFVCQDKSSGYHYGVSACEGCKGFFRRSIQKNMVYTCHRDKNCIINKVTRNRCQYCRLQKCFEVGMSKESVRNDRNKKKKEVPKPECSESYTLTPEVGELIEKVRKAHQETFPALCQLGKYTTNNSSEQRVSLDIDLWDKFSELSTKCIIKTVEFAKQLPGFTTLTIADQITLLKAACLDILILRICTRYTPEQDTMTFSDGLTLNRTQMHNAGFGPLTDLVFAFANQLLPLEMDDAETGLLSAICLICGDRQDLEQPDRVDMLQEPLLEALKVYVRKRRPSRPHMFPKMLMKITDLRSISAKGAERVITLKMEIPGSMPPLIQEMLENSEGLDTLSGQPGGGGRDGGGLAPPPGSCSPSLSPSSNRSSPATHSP
Description: Human embryonic kidney cells (HEK293) were plated at 60,000 cells per well in a 24-well plate and maintained as described above. After 24 h, the cells were transfected with 250 ng pTK-DR5(X2)-Luc, 25 ng pCMX-human RARα, and 20 ng renilla utilizing 1.25 µL polyethylenimine (PEI) per well for 24 h. The sequence of the double DR5 RARE is: 5′-[…]-3′ (DR5 responsive elements underlined). The cells were treated with ethanol vehicle (0.1%), all-trans-retinoic acid (RA, the ligand for RAR), or the indicated rexinoid at a final concentration of 10 nM. After 24 h of treatment, the retinoid activity was measured as described above (dual luciferase assay). […] Three independent assays were conducted with triplicate samples for each treatment group. The value for RA was set to 100%. […]

[4] = biological target: T3, RXR-LXR heterodimer (LXR/LXRE) (Homo sapiens, UniProt P19793); assay: LXRE-luciferase transactivation assay in HEK293 cells; conditions: for LXRE Activity (% of Bex): 100 nM compound alone, HEK293, bexarotene (1) set to 100%
T3 construct: expressed in transfected cells; host or cells: HEK293 cells
T3 sequence (P19793 1-462): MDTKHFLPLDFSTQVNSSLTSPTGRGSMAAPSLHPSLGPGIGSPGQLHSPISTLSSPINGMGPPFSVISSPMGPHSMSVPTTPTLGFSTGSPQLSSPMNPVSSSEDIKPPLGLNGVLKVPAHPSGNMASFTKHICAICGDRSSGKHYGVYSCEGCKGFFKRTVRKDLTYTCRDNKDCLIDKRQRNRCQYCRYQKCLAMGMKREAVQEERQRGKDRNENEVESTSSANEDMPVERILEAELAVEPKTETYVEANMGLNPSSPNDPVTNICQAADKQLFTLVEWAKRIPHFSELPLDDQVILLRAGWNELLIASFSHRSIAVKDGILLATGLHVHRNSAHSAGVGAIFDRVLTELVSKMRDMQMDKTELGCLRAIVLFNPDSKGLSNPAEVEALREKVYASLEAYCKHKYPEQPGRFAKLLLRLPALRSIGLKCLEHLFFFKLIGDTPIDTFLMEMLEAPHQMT
T3 sequence (Q13133 1-447 partner): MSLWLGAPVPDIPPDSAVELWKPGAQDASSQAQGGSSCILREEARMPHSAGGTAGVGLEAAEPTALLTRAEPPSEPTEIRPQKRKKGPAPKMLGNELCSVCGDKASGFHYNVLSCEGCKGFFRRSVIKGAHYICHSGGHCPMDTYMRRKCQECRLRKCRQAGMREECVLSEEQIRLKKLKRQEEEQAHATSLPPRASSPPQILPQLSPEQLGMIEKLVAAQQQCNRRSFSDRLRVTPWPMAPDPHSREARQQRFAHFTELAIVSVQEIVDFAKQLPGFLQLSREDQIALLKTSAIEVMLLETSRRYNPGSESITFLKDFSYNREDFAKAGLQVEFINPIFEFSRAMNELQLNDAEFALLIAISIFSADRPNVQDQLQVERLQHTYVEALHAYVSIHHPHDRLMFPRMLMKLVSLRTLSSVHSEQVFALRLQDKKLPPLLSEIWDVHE
Description: The activation from this natural LXRE in our system was tested in the presence of either 100 nM RXR agonists alone or in combination with 100 nM of both the RXR agonist and LXR agonist T0901317 (TO). […] The LXRE-mediated assays were performed using human embryonic cells (HEK293) seeded at a density of 60,000 cells/well in a 24-well plate and maintained in DMEM (Hyclone) supplemented with 10% fetal bovine serum, 100 µg/mL streptomycin, 100 U/mL penicillin (Invitrogen, Carlsbad, CA, USA) at 37 degrees Celsius, 5% CO2 for 24 h. The cells were co-transfected with 250 ng of an LXRE-luciferase reporter gene, 50 ng of pSG5-human RXRα, and 20 ng of renilla control plasmid. […] After 24 h post treatment, the cells were lysed and the transcriptional activity mediated by the LXRE was measured using the Dual Luciferase Assay System (Promega, Madison, WI) in a Sirius FB12 luminometer (Berthold Detection Systems, Pforzheim, Germany) according to the manufacturer’s protocol. The data are a compilation of between three and six independent assays with each treatment group dosed in triplicate for each independent assay. […] Bars on all graphs indicate standard deviation of the replicate experiments.
Cells were transfected for 24 h utilizing a liposome-mediated transfection protocol and then treated with the ethanol vehicle, or 100 nM of the indicated compound alone or in combination with 100 nM TO901317 (TO). […] (A) Human HEK-293 cells were transfected and treated as described in Figure 8.

[5] = biological target: T4, RXRA (Homo sapiens, UniProt P19793); assay: ApoA1-Luc luciferase assay in 293T cells with pBABE-RXRA; conditions: pBABE-RXRA and ApoA1-Luc, nonconverged, read-out: EC50 (nM), luciferase (Figure 7C)
T4 construct: expressed in transfected cells; host or cells: 293T cells
T4 sequence (P19793 1-462): T3 sequence (P19793 1-462)
Description: 293T cells were transfected using Lipofectamine 2000 (Invitrogen). Six hours after transfection, the cells were collected and plated into a 48-well plate in 1% BSA media in triplicate and treated with compounds. After 40 h incubation, the cells were harvested and assayed for luciferase (Luc Assay System with Reporter Lysis Buffer, Promega) in a Beckman Coulter LD400 plate reader.

| Structure (SMILES) | Cyto-Toxicity (50% Cell Death) [1] | EC50 [2] [nM] | RARE Activity (%RA at 10 nM) [3] [%RA] | LXRE Activity (% of Bex) [4] | EC50 [5] [nM] | LHS Score (vs. Bex) ([4]; LXRE Heterodimer Specificity: LXRE:RXRE activity ratio, compound 1 set to 1.0) |
| --- | --- | --- | --- | --- | --- | --- |
| CCN(c1ccc(C(=O)O)c(F)c1)c1ccc(OCC(C)C)c(C(C)C)c1 [Compound 29, 4-(ethyl(4-isobutoxy-3-isopropylphenyl)amino)-2-fluorobenzoic acid] | 1 µg/µL | > 1000 | 4.0 | 61.7 % of Bex | > 1000 |  |
| CC(C)COc1ccc(-n2nnc3cc(C(=O)O)ccc32)cc1C(C)C [Compound 31, 1-(4-isobutoxy-3-isopropylphenyl)-1H-benzo[d][1,2,3]triazole-5-carboxylic acid] | none | > 1000 | 3.1 | 64.5 % of Bex | > 1000 |  |
| C=C(c1ccc2c(c1)C(C)(C)CCC2(C)C)c1ncc(C(=O)O)cn1 [Compound 34, 2-(1-(5,5,8,8-tetramethyl-5,6,7,8-tetrahydronaphthalen-2-yl)vinyl)pyrimidine-5-carboxylic acid] | none | 56.2 | 10.3 | 77.6 % of Bex |  | 0.70 |
| CCN(c1ccc(OCC(C)C)c(C(C)C)c1)c1ccc(C(=O)O)cn1 [Compound 25, 6-(ethyl(4-isobutoxy-3-isopropylphenyl)amino)nicotinic acid] | none | 274 | 2.9 | 72.4 % of Bex |  |  |
